The values that follow come from patent US20100130598A1, “METHODS FOR INDUCING PROGRAMMED CELL DEATH” (Novogen Research Pty Ltd., priority 2008, published 2010).

In assay [1] the test system is ribosomal p70 S6 kinase (p-S6k). As to the kind of experiment: Western blot of EOC whole cell lysates for p-S6k. Particulars: EOC cells, 10 g/ml (as printed, FIG. 3 legend), 15 mins post-treatment. It is filed as cell-based, human. From the text:
Protein preparation and cellular fractionation. After drug treatment, protein was extracted and measured as previously described (Alvero et al, 2006). For separation of the cytoplasmic and mitochondrial fractions, cell pellets were processed using the ApoAlert™ Cell Fractionation Kit (BD Biosciences, San Jose, Calif.) according to the manufacturer's instructions. For separation of the cytoplasmic and nuclear fractions, pellets were processed using NE-PER Nuclear and Cytoplasmic Extraction (Pierce Biotechnology, Inc., Rockford, Ill.).
SDS-PAGE and Western blots. Cell lysates (20 μg protein) were denatured in sample buffer (2.5% SDS, 10% glycerol, 5% β-mercapto-ethanol, 0.15 M Tris (pH=6.8) and 0.01% bromophenol blue) and subjected to 12% SDS-PAGE as previously described (Kamsteeg et al, 2003). […]

In the next assay the test system is EOC cells. As to the kind of experiment: Cell viability assay (CellTiter 96 AQueous One). Format: cell-based, human. An excerpt:
Cell lines and culture conditions. Established human EOC cell lines, A2780 and A2780/CP70 (gifts from Dr. T C Hamilton) (Behrens et al, 1997) were propagated in RPMI plus 10% fetal bovine serum (Gemini Bio-Products, Woodland, Calif.). Primary EOC cell lines were isolated from malignant ovarian ascites or explanted from ovarian tumors and cultured as previously described (Alvero et al, 2006). Purity of the EOC cells was 100% as determined by immuno-staining for cytokeratin 7 antigen. All cell lines were grown at 37° C. in a 5% CO2 atmosphere.
Cell viability assay. Cell viability was determined as previously reported (Alvero et al., 2006). Briefly, cells (5×10^3) were plated in triplicate wells in a […] volume per well of a 96-well microtiter plate (BD Biosciences/Pharmingen, San Diego, Calif.). The cells were grown to 70% confluence and then incubated in reduced-serum phenol-depleted Opti-MEM medium (Invitrogen-GIBCO, Carlsbad, Calif.) for 4 h prior to treatment. Compound 1 (Novogen, Inc., NSW, Australia) was added to the medium from 10 mg/ml stock to give various final concentrations as described in the results section. Following 24 h treatment, cell viability was evaluated using the CellTiter 96® AQueous One Solution Cell Proliferation Assay (Promega Corporation, Madison, Wis.) according to the manufacturer's instructions. Optical densities of the samples were measured at 490 nm using an automatic microplate reader (Model 550, Bio-Rad, Hurcules, Calif.). The values from the treated cells were compared with the values generated from the untreated control and reported as percent viability. Each experiment was done in triplicate.
For experiments using the caspase inhibitor, Z-VAD-FMK (Sigma Aldrich, St. Louis, Mo.), the inhibitor was added to the cultures 30 mins prior to treatment to yield a final concentration of 20 μM. […]

Assay [2] has as its system phospho-S6 kinase (p-S6K). As to the kind of experiment: Western blot of lysed xenograft tumors for p-S6k. It is filed as in vivo, NCR nude mice. The settings on record: tumors from treated animals vs vehicle control. As for the experimental part:
SDS-PAGE and Western blots. Cell lysates (20 μg protein) were denatured in sample buffer (2.5% SDS, 10% glycerol, 5% β-mercapto-ethanol, 0.15 M Tris (pH=6.8) and 0.01% bromophenol blue) and subjected to 12% SDS-PAGE as previously described (Kamsteeg et al, 2003). The following antibodies and concentrations were used: mouse anti-XIAP (BD, 1:1,000), rabbit anti-MAP LC3 (1:200), rabbit anti-actin (Sigma, 1:10,000), rabbit anti-phosphorylated Akt (Cell Signaling, 1:1,000), rabbit anti-Akt (Cell Signaling, 1:1000), rabbit anti-phosphorylated mTOR (Cell Signaling, 1:1000), rabbit anti-mTOR (Cell Signaling, 1:1000), rabbit anti-cytochrome c (Clontech Laboratories, Inc, Mountainview, Calif., 1:100), rabbit anti-Omi (R&D Systems, Minneapolis, Minn., 1:5000), rabbit anti-Bid (Cell Signaling, 1:1000), mouse anti-Bax (BD Pharmingen, 1:250), rabbit anti-VDAC (Sigma Aldrich, 1:2000), mouse anti-Bcl2 (BD Pharmingen, 1:500), rabbit anti-AIF (Sigma Aldrich, 1:1000), rabbit anti-EndoG (Sigma Aldrich, 1:1000), mouse anti-topoisomerase I (BD Pharmingen, 1:10,000). Proteins were visualized using enhanced chemiluminescence (Pierce, Rockford Ill.).
Mouse xenograft studies. […] Tumor size was determined by caliper measurements and anti-tumor activity was analyzed with respect to maximal tumor inhibition (treated/control, T/C) as described previously (Kamsteeg et al, 2003).

Molecules are shown by their SMILES. In brackets after ≈: the same amount, converted by molar mass.

In the case of `COc1ccc(C2c3ccc(O)c(C)c3OCC2c2ccc(O)cc2)cc1` (centres unmarked) [Compound 1, 3-(4-hydroxyphenyl)-4-(4-methoxyphenyl)-8-methylchroman-7-ol], the p-S6k level entry in assay [1] is “down-regulated”. The “effect of autophagy inhibitor 3-MA on compound-induced cell death” value with EOC cells (Compound 1 10 μg/ml, 3 MA (10 μM)) is “not able to inhibit”. In the assay with EOC cells (Homo sapiens, primary EOC cultures, paclitaxel-sensitive and paclitaxel-resistant (R182, R456), 24 h, read-out: GI50 (reduction in percentage of viable cells)), the 50% growth inhibitory concentration (GI50) fell in the range of 5 to 10 µg/mL (≈ 13.8 to 27.6 µM). Also, the “impact of pan-caspase inhibitor Z-VAD-FMK on compound-induced cell death” value in the assay on EOC cells (Z-VAD-FMK 20 μM, increasing concentrations of Compound 1, 24 h) is “no impact”. In addition, the p-S6k in tumors entry in assay [2] is given as “significant decrease”.
